Test results from patent US20260183295A1, “METHODS AND COMPOSITIONS FOR TREATING CANCER” (Onconova Therapeutics, Inc., priority 2022, published 2026).

Experiments:
[1] = target: T1, STK17B (Homo sapiens, UniProt O94768); assay: CETSA-MS, MDA-MB-231 cell lysates; type: binding; conditions: 2 μM and 20 μM
T1 construct: endogenous in cells; host or cells: MDA-MB-231
Experimental: (§1) Following treatment, cell lysates were thermally treated in a thermal gradient profile across a temperature range. Following the thermal shift, cell lysates were spun by centrifuge to pellet aggregate protein and the supernatant withdrawn. The supernatant was then denatured in buffer and heated to denature, reduce, and alkylate the supernatant proteins. Following heating and cooling to room temperature, cold acetone was added to the supernatant samples and proteins precipitated.
(§2) The intact cell protein samples and lysate protein samples were then digested and labeled for mass spectrometry analysis according to the manufacturer's recommended protocols. Digested and labeled protein samples were analyzed by mass spectrometry proteomic analysis and the resulting protein targets were analyzed and plotted.

[2] = target: T2, BMP2K (Homo sapiens, UniProt Q9NSY1); assay: CETSA-MS, MDA-MB-231 cell lysates; type: binding; conditions: 2 μM and 20 μM
T2 construct: endogenous in cells; host or cells: MDA-MB-231
Experimental: as §1, §2

[3] = target: T3, STK17A (Homo sapiens, UniProt Q9UEE5); assay: CETSA-MS, MDA-MB-231 cell lysates; type: binding; conditions: 2 μM and 20 μM
T3 construct: endogenous in cells; host or cells: MDA-MB-231
Experimental: as §1, §2

[4] = target: T4, MAP11 (Homo sapiens, UniProt Q8WVR3); assay: CETSA-MS, MDA-MB-231 cell lysates; type: binding; conditions: 2 μM and 20 μM
T4 construct: endogenous in cells; host or cells: MDA-MB-231
Experimental: as §1, §2

[5] = target: T5, USF2 (Homo sapiens, UniProt Q15853); assay: CETSA-MS, MDA-MB-231 cell lysates; type: binding; conditions: 2 μM and 20 μM
T5 construct: endogenous in cells; host or cells: MDA-MB-231
Experimental: as §1, §2

[6] = target: T6, EPHA2 (Homo sapiens, UniProt P29317); assay: CETSA-MS, MDA-MB-231 cell lysates; type: binding; conditions: 2 μM and 20 μM
T6 construct: endogenous in cells; host or cells: MDA-MB-231
Experimental: as §1, §2

[7] = target: T7, CHEK1 (Homo sapiens, UniProt O14757); assay: CETSA-MS, MDA-MB-231 cell lysates; type: binding; conditions: 2 μM and 20 μM
T7 construct: endogenous in cells; host or cells: MDA-MB-231
T7 sequence (O14757 1-476): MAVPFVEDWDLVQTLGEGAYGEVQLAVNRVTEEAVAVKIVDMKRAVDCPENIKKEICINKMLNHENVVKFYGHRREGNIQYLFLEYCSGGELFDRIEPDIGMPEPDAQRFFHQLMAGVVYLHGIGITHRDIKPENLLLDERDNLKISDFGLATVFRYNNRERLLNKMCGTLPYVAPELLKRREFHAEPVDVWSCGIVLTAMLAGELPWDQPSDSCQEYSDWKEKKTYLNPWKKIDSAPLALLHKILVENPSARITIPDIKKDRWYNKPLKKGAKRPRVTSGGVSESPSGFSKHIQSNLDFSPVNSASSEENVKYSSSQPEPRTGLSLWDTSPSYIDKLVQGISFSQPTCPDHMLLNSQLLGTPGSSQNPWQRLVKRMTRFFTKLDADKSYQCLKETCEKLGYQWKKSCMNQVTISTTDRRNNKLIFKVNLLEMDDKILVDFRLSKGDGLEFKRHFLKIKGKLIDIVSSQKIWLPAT
Experimental: as §1, §2

[8] = target: T8, CPQ (Homo sapiens, UniProt Q9Y646); assay: CETSA-MS, MDA-MB-231 cell lysates; type: binding; conditions: 2 μM and 20 μM
T8 construct: endogenous in cells; host or cells: MDA-MB-231
Experimental: as §1, §2

[9] = target: T9, LIMK1 (Homo sapiens, UniProt P53667); assay: CETSA-MS, MDA-MB-231 cell lysates; type: binding; conditions: 2 μM and 20 μM
T9 construct: endogenous in cells; host or cells: MDA-MB-231
Experimental: as §1, §2

[10] = target: T10, TFEB (Homo sapiens, UniProt P19484); assay: CETSA-MS, MDA-MB-231 cell lysates; type: binding; conditions: 2 μM and 20 μM
T10 construct: endogenous in cells; host or cells: MDA-MB-231
Experimental: as §1, §2

[11] = target: T11, UVSSA (Homo sapiens, UniProt Q2YD98); assay: CETSA-MS, MDA-MB-231 cell lysates; type: binding; conditions: 2 μM and 20 μM
T11 construct: endogenous in cells; host or cells: MDA-MB-231
Experimental: as §1, §2

[12] = target: T12, ATAT1 (Homo sapiens, UniProt Q5SQI0); assay: CETSA-MS, MDA-MB-231 cell lysates; type: binding; conditions: 2 μM and 20 μM
T12 construct: endogenous in cells; host or cells: MDA-MB-231
Experimental: as §1, §2

[13] = target: BUB1 (Homo sapiens, UniProt O43683); assay: CETSA-MS, MDA-MB-231 cell lysates; type: binding; conditions: 2 μM and 20 μM
Experimental: as §1, §2

[14] = target: T13, DGCR6 (Homo sapiens, UniProt Q14129); assay: CETSA-MS, MDA-MB-231 cell lysates; type: binding; conditions: 2 μM and 20 μM
T13 construct: endogenous in cells; host or cells: MDA-MB-231
Experimental: as §1, §2

[15] = target: T14, CDK4/cyclin D1 (Homo sapiens, UniProt P11802); assay: CDK4/cyclin D1 In Vitro Kd, kinase binding assay (qPCR)
Experimental: Kinase-tagged T7 phage strains were prepared in an E. coli host derived from the BL21 strain. E. coli were grown to log-phase and infected with T7 phage and incubated with shaking at 32° C. until lysis. […] The remaining kinases were produced in HEK-293 cells and subsequently tagged with DNA for qPCR detection. […] The liganded beads were blocked with excess biotin and washed with blocking buffer (SeaBlock (Pierce), 1% BSA, 0.05% Tween 20, 1 mM DTT) to remove unbound ligand and to reduce non-specific binding. […] Test compounds were prepared as 111× stocks in 100% DMSO. Kds were determined using an 11-point 3-fold compound dilution series with three DMSO control points. […] The compounds were then diluted directly into the assays such that the final concentration of DMSO was 0.9%. All reactions performed in polypropylene 384-well plate. Each was a final volume of 0.02 ml. […] The kinase concentration in the eluates was measured by qPCR. […] Curves were fitted using a non-linear least square fit with the Levenberg-Marquardt algorithm.

[16] = tested on: BT-474; assay: MTT cell viability, 48 hours; type: cell-based; conditions: Homo sapiens, BT-474 (HR+ HER2+), read-out: 48 h-cell viability decrease
Experimental: (§3) A panel of […] breast cancer cell lines: T-47D, BT-474, MDA-MB-453, MDA-MB-468, HCC-1937, Hs578T, and MDA-MB-231, was treated for 48 hours with 5 μM Compound 1 and the cell viability was measured using the MTT assay. TABLE 6 summarizes the cell lines, and the change in viability after 48 hours of treatment with Compound 1.

[17] = tested on: T-47D; assay: MTT cell viability, 48 hours; type: cell-based; conditions: Homo sapiens, T47D, T-47D (HR+ HER2−), read-out: 48 h-cell viability decrease
Experimental: as §3

[18] = tested on: MDA-MB-453; assay: MTT cell viability, 48 hours; type: cell-based; conditions: Homo sapiens, MDA-MB-453 (TNBC), read-out: 48 h-cell viability decrease
Experimental: as §3

[19] = tested on: MDA-MB-468; assay: MTT cell viability, 48 hours; type: cell-based; conditions: Homo sapiens, MDA-MB-468 (TNBC), read-out: 48 h-cell viability decrease
Experimental: as §3

[20] = tested on: Hs578T; assay: MTT cell viability, 48 hours; type: cell-based; conditions: Homo sapiens, Hs-578T, Hs578T (TNBC), read-out: 48 h-cell viability decrease
Experimental: as §3

[21] = tested on: MDA-MB-231; assay: MTT cell viability, 48 hours; type: cell-based; conditions: Homo sapiens, MDA-MB-231 (TNBC), read-out: 48 h-cell viability decrease
Experimental: as §3

[22] = tested on: HCC-1937; assay: MTT cell viability, 48 hours; type: cell-based; conditions: Homo sapiens, HCC1937, 48 h, HCC-1937 (TNBC), read-out: 48 h-cell viability decrease
Experimental: as §3

[23] = target: T14, CDK4/cyclin D1; assay: CDK4/cyclin D1 NanoBret IC50; type: cell-based

T14 sequence (P11802 whole entry): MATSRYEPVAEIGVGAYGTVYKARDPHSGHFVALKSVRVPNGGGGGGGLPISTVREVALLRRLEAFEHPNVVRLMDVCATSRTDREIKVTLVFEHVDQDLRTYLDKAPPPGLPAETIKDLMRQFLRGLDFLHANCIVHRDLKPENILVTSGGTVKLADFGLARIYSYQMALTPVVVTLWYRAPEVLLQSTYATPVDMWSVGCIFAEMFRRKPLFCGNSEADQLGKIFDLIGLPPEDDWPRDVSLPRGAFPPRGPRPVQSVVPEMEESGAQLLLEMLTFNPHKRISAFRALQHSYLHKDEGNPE
T14 sequence (P24385 whole entry partner): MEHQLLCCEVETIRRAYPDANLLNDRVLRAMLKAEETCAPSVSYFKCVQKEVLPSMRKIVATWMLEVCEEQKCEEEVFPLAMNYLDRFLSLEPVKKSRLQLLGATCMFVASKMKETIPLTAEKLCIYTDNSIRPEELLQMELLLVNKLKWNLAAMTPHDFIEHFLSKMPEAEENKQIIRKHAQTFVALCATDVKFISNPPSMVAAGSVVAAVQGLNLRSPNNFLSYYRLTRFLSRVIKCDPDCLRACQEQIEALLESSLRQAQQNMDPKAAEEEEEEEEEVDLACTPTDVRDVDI
T3 sequence (Q9UEE5 whole entry): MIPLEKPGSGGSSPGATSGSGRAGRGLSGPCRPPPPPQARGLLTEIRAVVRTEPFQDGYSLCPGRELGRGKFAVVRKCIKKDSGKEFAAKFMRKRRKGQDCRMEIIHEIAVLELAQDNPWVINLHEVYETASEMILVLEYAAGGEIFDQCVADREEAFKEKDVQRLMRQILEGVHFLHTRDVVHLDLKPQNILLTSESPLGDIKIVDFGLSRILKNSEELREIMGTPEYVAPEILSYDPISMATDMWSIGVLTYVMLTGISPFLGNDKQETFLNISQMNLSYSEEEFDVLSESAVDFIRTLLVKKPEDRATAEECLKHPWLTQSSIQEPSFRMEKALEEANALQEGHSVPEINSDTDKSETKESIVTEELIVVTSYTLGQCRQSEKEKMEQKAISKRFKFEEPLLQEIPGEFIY
T12 sequence (Q5SQI0 whole entry): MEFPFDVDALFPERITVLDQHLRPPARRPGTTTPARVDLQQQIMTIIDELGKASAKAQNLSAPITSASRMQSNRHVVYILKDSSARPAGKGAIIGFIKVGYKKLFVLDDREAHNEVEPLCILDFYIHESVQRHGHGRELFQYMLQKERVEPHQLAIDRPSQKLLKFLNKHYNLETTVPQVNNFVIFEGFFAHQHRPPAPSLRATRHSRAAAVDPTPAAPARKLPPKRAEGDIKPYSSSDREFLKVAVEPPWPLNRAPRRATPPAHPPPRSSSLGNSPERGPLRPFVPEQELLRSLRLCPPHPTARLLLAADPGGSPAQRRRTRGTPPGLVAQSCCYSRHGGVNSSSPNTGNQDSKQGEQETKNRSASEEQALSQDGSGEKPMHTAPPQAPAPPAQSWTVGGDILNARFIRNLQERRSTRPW
T10 sequence (P19484 whole entry): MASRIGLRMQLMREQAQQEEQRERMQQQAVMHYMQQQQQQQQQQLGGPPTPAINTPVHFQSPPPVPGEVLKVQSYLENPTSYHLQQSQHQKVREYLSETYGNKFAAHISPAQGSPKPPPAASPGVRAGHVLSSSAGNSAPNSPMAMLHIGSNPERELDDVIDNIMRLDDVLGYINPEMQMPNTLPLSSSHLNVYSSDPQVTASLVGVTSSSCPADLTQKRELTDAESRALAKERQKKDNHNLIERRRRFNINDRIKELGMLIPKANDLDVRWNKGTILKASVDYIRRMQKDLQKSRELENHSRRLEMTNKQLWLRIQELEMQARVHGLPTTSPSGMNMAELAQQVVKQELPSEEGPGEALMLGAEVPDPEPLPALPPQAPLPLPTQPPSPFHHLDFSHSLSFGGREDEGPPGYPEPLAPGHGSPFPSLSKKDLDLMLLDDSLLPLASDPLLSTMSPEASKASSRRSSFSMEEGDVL
T4 sequence (Q8WVR3 whole entry): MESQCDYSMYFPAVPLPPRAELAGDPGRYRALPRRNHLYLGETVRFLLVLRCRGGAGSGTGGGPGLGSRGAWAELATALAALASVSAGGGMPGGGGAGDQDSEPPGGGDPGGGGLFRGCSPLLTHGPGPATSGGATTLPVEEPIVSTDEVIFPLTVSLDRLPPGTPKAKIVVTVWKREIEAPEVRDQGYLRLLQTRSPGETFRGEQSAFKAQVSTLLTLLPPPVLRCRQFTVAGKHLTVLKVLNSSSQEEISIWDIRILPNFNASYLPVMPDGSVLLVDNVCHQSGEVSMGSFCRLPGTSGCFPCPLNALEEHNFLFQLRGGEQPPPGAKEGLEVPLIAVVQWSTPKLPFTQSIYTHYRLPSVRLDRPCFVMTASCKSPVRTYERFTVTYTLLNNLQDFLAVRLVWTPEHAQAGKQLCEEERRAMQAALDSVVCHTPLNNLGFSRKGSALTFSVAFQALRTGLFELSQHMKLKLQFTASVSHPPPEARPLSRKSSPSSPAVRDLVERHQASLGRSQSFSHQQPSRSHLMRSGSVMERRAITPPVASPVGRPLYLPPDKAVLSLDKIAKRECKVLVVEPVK
T2 sequence (Q9NSY1 whole entry): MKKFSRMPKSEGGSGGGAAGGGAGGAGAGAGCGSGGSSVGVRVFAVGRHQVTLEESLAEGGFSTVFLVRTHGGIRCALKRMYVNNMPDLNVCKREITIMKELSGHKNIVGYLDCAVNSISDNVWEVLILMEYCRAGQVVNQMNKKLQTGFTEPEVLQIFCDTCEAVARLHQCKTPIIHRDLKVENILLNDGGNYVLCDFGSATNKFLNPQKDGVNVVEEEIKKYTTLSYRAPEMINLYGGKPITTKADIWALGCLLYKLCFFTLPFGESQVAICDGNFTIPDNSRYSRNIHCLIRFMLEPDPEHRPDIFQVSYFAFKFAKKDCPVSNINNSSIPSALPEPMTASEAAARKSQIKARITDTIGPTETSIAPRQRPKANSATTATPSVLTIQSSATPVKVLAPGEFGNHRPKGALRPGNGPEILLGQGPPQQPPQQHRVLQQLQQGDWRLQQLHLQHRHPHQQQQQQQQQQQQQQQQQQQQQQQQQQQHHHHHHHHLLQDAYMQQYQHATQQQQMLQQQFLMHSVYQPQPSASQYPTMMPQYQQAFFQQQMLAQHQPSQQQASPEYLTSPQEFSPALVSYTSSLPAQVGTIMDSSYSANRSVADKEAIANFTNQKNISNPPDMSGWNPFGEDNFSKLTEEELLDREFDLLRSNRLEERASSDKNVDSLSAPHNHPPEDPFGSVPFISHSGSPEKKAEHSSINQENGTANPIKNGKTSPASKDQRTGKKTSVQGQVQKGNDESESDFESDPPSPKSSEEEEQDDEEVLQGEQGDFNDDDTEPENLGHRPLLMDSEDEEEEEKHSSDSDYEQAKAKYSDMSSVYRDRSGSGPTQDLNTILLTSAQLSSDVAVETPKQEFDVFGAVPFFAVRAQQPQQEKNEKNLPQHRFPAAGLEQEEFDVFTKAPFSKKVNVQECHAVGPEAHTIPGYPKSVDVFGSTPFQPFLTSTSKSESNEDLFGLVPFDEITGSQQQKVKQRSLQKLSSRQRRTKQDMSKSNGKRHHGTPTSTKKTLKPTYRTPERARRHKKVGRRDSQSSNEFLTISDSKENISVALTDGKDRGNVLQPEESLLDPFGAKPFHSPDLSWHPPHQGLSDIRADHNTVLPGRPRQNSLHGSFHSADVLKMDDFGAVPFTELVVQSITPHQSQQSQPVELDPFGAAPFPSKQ
T8 sequence (Q9Y646 45-472): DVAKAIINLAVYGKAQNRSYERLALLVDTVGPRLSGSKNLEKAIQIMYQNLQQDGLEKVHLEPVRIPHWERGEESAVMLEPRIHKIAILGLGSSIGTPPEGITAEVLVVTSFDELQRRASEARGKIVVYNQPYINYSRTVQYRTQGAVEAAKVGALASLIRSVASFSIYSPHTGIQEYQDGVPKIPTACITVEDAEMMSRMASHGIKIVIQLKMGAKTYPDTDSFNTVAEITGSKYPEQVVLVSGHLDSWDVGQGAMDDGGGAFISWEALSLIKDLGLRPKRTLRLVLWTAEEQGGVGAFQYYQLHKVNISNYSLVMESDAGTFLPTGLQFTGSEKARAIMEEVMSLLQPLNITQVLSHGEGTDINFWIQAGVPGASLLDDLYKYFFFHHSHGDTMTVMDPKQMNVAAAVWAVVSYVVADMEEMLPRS
T11 sequence (Q2YD98 whole entry): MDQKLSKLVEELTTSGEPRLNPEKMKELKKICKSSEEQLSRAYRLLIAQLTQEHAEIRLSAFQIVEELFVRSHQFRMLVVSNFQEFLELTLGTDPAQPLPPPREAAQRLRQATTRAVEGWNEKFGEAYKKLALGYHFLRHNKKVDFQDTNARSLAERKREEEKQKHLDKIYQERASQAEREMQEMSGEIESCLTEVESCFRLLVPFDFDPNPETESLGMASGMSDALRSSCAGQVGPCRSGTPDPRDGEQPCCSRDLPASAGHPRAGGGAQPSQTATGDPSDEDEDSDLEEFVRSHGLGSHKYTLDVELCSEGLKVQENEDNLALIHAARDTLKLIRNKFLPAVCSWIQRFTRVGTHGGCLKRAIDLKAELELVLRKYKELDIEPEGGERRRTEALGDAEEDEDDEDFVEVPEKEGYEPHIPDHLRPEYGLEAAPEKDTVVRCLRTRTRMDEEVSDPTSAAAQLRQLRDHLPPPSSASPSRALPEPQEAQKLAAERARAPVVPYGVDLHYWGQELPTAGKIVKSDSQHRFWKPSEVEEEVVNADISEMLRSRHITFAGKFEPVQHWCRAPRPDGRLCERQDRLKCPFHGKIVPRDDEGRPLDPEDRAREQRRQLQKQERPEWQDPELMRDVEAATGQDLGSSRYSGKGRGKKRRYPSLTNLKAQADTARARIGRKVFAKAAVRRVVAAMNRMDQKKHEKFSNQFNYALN

`CN1CCN(c2ccc(Nc3ncc4cc(C#N)c(=O)n(C5CCCC5)c4n3)cc2)CC1` [Compound 1, 8-cyclopentyl-2-((4-(4-methylpiperazin-1-yl)phenyl)amino)-7-oxo-7,8-dihydropyrido[2,3-d]pyrimidine-6-carbonitrile] was tested, and the “Group (CETSA-MS thermal shift)” value [1] was “Stabilization”, the “Group (CETSA-MS thermal shift)” value [2] was “Stabilization” and the “Group (CETSA-MS thermal shift)” value [3] was “Stabilization”. The “Group (CETSA-MS thermal shift)” value [4] was “Stabilization”, the “Group (CETSA-MS thermal shift)” value [5] was “Stabilization” and the “Group (CETSA-MS thermal shift)” value [6] was “Stabilization”. For the same molecule, the “Group (CETSA-MS thermal shift)” value [7] was “Destabilization”, the “Group (CETSA-MS thermal shift)” value [8] was “Stabilization” and the “Group (CETSA-MS thermal shift)” value [9] was “Stabilization”. The “Group (CETSA-MS thermal shift)” value [10] was “Stabilization”, the “Group (CETSA-MS thermal shift)” value [11] was “Destabilization” and the “Group (CETSA-MS thermal shift)” value [12] was “Stabilization”. For the same molecule, the “Group (CETSA-MS thermal shift)” value [13] was “Stabilization”, the “Group (CETSA-MS thermal shift)” value [14] was “Destabilization” and the Kd [15] was 0.18 nM. For the same molecule, the cytotoxicity at 5 µM [16] was 50%, the cytotoxicity at 5 µM [17] was 60% and the cytotoxicity at 5 µM [18] was 50%. The cytotoxicity at 5 µM [19] was 65%, the cytotoxicity at 5 µM [20] was 40% and the cytotoxicity at 5 µM [21] was 60%. For the same molecule, the cytotoxicity at 5 µM [22] was 20% and the IC50 [23] was 1 nM.
